Assay results: patent US11878975B2, “Substituted indole compounds useful as TLR inhibitors” (BRISTOL-MYERS SQUIBB COMPANY, priority 2017, dated 2024)

Legend:
Format in all cases: cell-based
[1] = biological target: T1, human TLR8 (Homo sapiens, UniProt Q9NR97); experiment: TLR8 inhibition reporter assay (HEK-Blue cells, SEAP reporter, R848 stimulation); details: HEK-Blue cells overexpressing human TLR8, SEAP reporter, R848 15.9 μM
T1 construct: host or cells: HEK-Blue cells
T1 sequence (Q9NR97 27-1041): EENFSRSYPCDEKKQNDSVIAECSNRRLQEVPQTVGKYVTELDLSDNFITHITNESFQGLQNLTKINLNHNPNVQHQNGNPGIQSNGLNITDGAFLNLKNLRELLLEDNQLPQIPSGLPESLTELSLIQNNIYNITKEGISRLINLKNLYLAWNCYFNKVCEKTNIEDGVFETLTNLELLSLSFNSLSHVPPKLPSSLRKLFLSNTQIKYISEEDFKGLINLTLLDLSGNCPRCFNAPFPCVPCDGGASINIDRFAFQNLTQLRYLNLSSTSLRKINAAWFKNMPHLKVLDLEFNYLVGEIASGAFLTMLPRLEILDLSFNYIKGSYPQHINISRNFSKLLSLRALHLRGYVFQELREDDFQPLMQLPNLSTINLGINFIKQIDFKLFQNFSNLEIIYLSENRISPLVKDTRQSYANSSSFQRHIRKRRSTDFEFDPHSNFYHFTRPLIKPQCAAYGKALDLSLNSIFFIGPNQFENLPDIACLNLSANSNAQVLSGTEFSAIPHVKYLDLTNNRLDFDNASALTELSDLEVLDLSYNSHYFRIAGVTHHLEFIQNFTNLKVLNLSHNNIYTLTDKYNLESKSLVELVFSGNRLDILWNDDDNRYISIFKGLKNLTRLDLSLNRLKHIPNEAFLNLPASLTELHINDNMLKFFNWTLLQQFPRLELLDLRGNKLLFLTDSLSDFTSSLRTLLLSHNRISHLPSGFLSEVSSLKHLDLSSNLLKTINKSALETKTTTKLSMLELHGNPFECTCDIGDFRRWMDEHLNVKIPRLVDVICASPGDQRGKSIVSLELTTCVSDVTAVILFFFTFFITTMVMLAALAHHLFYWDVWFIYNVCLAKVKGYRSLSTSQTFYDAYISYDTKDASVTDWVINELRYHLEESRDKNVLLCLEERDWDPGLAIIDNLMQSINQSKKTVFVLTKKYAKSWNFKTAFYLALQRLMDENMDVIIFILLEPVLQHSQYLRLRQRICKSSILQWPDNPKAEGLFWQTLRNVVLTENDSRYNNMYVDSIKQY
Summary of the method: (§1)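 Ligand levels: TLR7 gardiquimod 7.5 μM, TLR8 R848 15.9 μM, TLR9 ODN2006 5 nM, added after 30 min room-temperature compound pre-incubation at 0.05 nM-50 μM. Reporter SEAP read with HEK-Blue Detection reagent after 22 h, 37° C. Inhibition expressed as % reduction relative to agonist-plus-DMSO and known-inhibitor controls.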

[2] = biological target: T2, human TLR7 (Homo sapiens, UniProt Q9NYK1); experiment: TLR7 inhibition reporter assay (HEK-Blue cells, SEAP reporter, gardiquimod stimulation); details: HEK-Blue cells overexpressing human TLR7, SEAP reporter, gardiquimod 7.5 μM
T2 construct: host or cells: HEK-Blue cells
T2 sequence (Q9NYK1 27-1049): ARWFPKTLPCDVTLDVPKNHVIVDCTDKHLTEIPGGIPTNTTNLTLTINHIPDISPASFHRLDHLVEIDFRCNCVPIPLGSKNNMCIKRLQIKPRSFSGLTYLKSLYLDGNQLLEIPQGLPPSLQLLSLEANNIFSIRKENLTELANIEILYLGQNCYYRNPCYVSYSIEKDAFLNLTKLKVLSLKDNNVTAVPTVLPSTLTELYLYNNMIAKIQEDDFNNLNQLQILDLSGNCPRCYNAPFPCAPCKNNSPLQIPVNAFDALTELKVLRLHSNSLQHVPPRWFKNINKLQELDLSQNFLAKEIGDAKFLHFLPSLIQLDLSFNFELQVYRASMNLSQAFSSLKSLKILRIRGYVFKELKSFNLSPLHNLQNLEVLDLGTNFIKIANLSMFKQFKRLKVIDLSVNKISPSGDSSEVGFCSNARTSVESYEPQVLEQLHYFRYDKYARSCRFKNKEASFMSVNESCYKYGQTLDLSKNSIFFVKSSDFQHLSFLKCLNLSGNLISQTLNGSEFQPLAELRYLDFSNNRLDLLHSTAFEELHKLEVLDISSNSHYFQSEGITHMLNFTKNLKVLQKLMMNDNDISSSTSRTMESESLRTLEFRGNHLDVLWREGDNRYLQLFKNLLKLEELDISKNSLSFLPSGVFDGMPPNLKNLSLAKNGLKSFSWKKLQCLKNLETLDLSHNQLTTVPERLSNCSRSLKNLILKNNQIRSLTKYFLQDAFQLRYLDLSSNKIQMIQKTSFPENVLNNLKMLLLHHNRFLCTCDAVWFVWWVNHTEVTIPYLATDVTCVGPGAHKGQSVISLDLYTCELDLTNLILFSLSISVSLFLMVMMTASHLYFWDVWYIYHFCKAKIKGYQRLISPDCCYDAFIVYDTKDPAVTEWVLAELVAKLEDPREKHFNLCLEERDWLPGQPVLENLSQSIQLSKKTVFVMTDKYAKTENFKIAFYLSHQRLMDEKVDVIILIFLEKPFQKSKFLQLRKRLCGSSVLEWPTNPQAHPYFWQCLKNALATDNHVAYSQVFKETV
Summary of the method: as §1

[3] = biological target: T3, human TLR9 (Homo sapiens, UniProt Q9NR96); experiment: TLR9 inhibition reporter assay (HEK-Blue cells, SEAP reporter, ODN2006 stimulation); details: HEK-Blue cells overexpressing human TLR9, SEAP reporter, ODN2006 5 nM
T3 construct: host or cells: HEK-Blue cells
T3 sequence (Q9NR96 26-1032): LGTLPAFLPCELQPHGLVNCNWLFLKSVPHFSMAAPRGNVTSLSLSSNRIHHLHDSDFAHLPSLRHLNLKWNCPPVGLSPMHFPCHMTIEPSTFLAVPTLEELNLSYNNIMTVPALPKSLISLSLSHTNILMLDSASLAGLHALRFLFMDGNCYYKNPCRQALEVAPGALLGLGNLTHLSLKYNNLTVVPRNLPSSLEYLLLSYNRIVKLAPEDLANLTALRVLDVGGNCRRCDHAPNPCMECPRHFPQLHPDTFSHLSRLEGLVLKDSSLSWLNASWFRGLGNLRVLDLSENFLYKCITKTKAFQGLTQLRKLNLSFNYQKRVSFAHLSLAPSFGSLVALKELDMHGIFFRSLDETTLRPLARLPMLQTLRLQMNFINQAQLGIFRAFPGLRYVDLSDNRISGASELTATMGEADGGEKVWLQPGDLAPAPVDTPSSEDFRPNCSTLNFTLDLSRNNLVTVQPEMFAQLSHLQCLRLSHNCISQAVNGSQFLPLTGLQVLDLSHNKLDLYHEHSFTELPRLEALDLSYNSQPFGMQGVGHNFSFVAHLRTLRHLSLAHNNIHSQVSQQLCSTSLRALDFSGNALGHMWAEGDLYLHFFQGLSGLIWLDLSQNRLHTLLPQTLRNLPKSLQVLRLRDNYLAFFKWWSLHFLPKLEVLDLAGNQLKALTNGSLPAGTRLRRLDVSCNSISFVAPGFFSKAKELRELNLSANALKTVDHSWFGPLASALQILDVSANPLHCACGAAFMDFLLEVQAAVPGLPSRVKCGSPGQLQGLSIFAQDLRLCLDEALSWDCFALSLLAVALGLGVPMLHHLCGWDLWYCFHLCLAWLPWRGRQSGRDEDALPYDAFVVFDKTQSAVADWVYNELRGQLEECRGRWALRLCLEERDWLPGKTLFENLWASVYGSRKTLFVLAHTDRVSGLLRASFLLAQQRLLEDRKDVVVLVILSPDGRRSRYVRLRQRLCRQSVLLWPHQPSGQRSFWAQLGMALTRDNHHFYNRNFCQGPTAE
Summary of the method: as §1

Row | IC50 [1] | IC50 [2] | IC50 [3] | Structure (SMILES)
1 | 51 nM | 5 nM | 697 nM | CN[C@H](C)C(=O)N1CCCC(c2ccc3[nH]c(-c4cc(C)nc(C)c4)c(C(C)C)c3c2)C1 (stereo partly drawn) [Example 217]
2 | 80 nM | 15 nM | 699 nM | Cc1cc(-c2[nH]c3ccc(C4CCCN(C(=O)[C@@H]5CCN5)C4)cc3c2C(C)C)cc(C)n1 (stereo partly drawn) [Example 218]
3 | 8.5 nM | 9 nM | 519 nM | CN[C@@H](C)C(=O)N1CCCC(c2ccc3[nH]c(-c4cc(C)nc(C)c4)c(C(C)C)c3c2)C1 (stereo partly drawn) [Example 219]
4 | 11 nM | 1 nM | 339 nM | Cc1cc(-c2[nH]c3ccc(C4CCCN(C(=O)[C@@H]5CCN5)C4)cc3c2C(C)C)cc(C)n1 (stereo partly drawn) [Example 220]
5 | 9.2 nM | 2 nM | 3100 nM | COc1cc(-c2[nH]c3ccc(C4CCCN(CC(=O)N(C)C)C4)cc3c2C(C)C)cn2ncnc12 (stereo not drawn) [Example 222, 2-(3-(3-isopropyl-2-(8-methoxy-[1,2,4]triazolo[1,5-a]pyridin-6-yl)-1H-indol-5-yl)piperidin-1-yl)-N,N-dimethylacetamide]
6 | 13 nM | 2 nM | 7500 nM | CNC(=O)CN1CCCC(c2ccc3[nH]c(-c4cc(OC)c5ncnn5c4)c(C(C)C)c3c2)C1 (stereo not drawn) [Example 223]
7 | 16 nM | 2 nM | 1830 nM | COc1cc(-c2[nH]c3ccc(C4CCCN(CC(=O)N(C)C)C4)cc3c2C(C)C)cn2ncnc12 (stereo not drawn) [Example 224]
8 | 12 nM | 4 nM | 4730 nM | COc1cc(-c2[nH]c3ccc(C4CCCN(CC(N)=O)C4)cc3c2C(C)C)cn2ncnc12 (stereo not drawn) [Example 225]
9 | 7.4 nM | 17 nM | 9770 nM | Cc1c(-c2[nH]c3ccc(C4CCCN(CC(=O)N(C)C)C4)cc3c2C(C)C)cn2ncnc2c1C (stereo not drawn) [Example 226]
10 | 51 nM | 156 nM | 3770 nM | COc1ccc(-c2[nH]c3ccc(C4CCCN(CC(=O)N(C)C)C4)cc3c2C(C)C)cc1OC (stereo not drawn) [Example 227]
11 | 10 nM | 2 nM | 4870 nM | CNC(=O)CN1CCCC(c2ccc3[nH]c(-c4cc(OC)c5ncnn5c4)c(C(C)C)c3c2)C1 (stereo not drawn) [Example 228]
12 | 8.1 nM | 4 nM | 6380 nM | COc1cc(-c2[nH]c3ccc(C4CCCN(CC(N)=O)C4)cc3c2C(C)C)cn2ncnc12 (stereo not drawn) [Example 229]
13 | 13 nM | 13 nM | 5790 nM | Cc1c(-c2[nH]c3ccc(C4CCCN(CC(=O)N(C)C)C4)cc3c2C(C)C)cn2ncnc2c1C (stereo not drawn) [Example 230]
14 | 4.6 nM | 9 nM | 17300 nM | CNC(=O)CN1CCCC(c2ccc3[nH]c(-c4cn5ncnc5c(C)c4C)c(C(C)C)c3c2)C1 (stereo not drawn) [Example 231]
15 | 8.1 nM | 9 nM | 16300 nM | CNC(=O)CN1CCCC(c2ccc3[nH]c(-c4cn5ncnc5c(C)c4C)c(C(C)C)c3c2)C1 (stereo not drawn) [Example 232]
16 | 56 nM | 15 nM | 1350 nM | Cc1cc(-c2[nH]c3ccc(C4CCCN(CC(=O)N(C)C)C4)cc3c2C(C)C)cc(C)n1 (stereo not drawn) [Example 233]
17 | 5.7 nM | 3 nM | 7370 nM | COc1cc(-c2[nH]c3ccc(C4CCCN(CC(N)=O)C4)cc3c2C(C)C)cn2ncnc12 (stereo not drawn) [Example 234]
18 | 12 nM | 40 nM | 693 nM | Cc1cc(-c2[nH]c3ccc(C4CCCN(CC(=O)N(C)C)C4)cc3c2C(C)C)cc(C)n1 (stereo not drawn) [Example 235]
19 | 0.46 nM | 1 nM | 1250 nM | COc1cc(-c2[nH]c3ccc(C4CCCN(C(C)C)C4)cc3c2C(C)C)cn2ncnc12 (stereo not drawn) [Example 236, 6-(3-isopropyl-5-(1-isopropylpiperidin-3-yl)-1H-indol-2-yl)-8-methoxy-[1,2,4]triazolo[1,5-a]pyridine]
20 | 38 nM | 15 nM | 21200 nM | COc1cc(-c2[nH]c3ccc(C4CCCN(C5COC5)C4)cc3c2C(C)C)cn2ncnc12 (stereo not drawn) [Example 237]
